Assay results: PubChem BioAssay (NCI)
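Values below derive from 48-hour exposures of cells grown in 96-well plates, with endpoints linearly interpolated between the two concentrations bracketing the appropriate inhibition level. TGI is the concentration that stops growth completely.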

Tests used:
Assay in all cases: inhibition of tumour cell growth, NCI panel, 48 h
A498 renal = system: A498 renal
A549 NSCLC = system: A549 NSCLC
ACHN renal = system: ACHN renal
CAKI-1 renal = system: CAKI-1 renal
CCRF-CEM leukemia = system: CCRF-CEM leukemia
COLO 205 colon = system: COLO 205 colon
DU-145 prostate = system: DU-145 prostate
EKVX NSCLC = system: EKVX NSCLC
HCC-2998 colon = system: HCC-2998 colon
HCT-15 colon = system: HCT-15 colon
HL-60(TB) leukemia = system: HL-60(TB) leukemia
HOP-62 NSCLC = system: HOP-62 NSCLC
HOP-92 NSCLC = system: HOP-92 NSCLC
HT29 colon = system: HT29 colon
IGROV1 ovarian = system: IGROV1 ovarian
K-562 leukemia = system: K-562 leukemia
KM12 colon = system: KM12 colon
LOX IMVI melanoma = system: LOX IMVI melanoma
M14 melanoma = system: M14 melanoma
MALME-3M melanoma = system: MALME-3M melanoma
MCF7 breast = system: MCF7 breast
MDA-MB-231 breast = system: MDA-MB-231 breast
MDA-MB-435 = system: MDA-MB-435
MDA-N = system: MDA-N
MOLT-4 leukemia = system: MOLT-4 leukemia
NCI-H226 lung = system: NCI-H226 lung
NCI-H23 lung = system: NCI-H23 lung
NCI-H460 lung = system: NCI-H460 lung
NCI/ADR-RES ovarian = system: NCI/ADR-RES ovarian
OVCAR-3 ovarian = system: OVCAR-3 ovarian
OVCAR-4 ovarian = system: OVCAR-4 ovarian
OVCAR-5 ovarian = system: OVCAR-5 ovarian
OVCAR-8 ovarian = system: OVCAR-8 ovarian
PC-3 prostate = system: PC-3 prostate
RPMI-8226 leukemia = system: RPMI-8226 leukemia
RXF 393 renal = system: RXF 393 renal
SF-295 CNS = system: SF-295 CNS
SK-MEL-2 melanoma = system: SK-MEL-2 melanoma
SK-MEL-28 melanoma = system: SK-MEL-28 melanoma
SK-MEL-5 melanoma = system: SK-MEL-5 melanoma
SK-OV-3 ovarian = system: SK-OV-3 ovarian
SNB-19 CNS = system: SNB-19 CNS
SNB-75 CNS = system: SNB-75 CNS
SR leukemia = system: SR leukemia
SW-620 colon = system: SW-620 colon
T-47D breast = system: T-47D breast
TK-10 renal = system: TK-10 renal
U251 CNS = system: U251 CNS
UACC-257 melanoma = system: UACC-257 melanoma
UACC-62 melanoma = system: UACC-62 melanoma
UO-31 renal = system: UO-31 renal
BT-549 breast = system: BT-549 breast
HCT-116 colon = system: HCT-116 colon
NCI-H522 lung = system: NCI-H522 lung
SF-268 CNS = system: SF-268 CNS
SF-539 CNS = system: SF-539 CNS
SN12C renal = system: SN12C renal

For `CCOC(=O)c1csc(NC(=O)CN2CCN(c3ccccc3)CC2)n1`, the TGI (A498 renal) was > 100 µM, the TGI (A549 NSCLC) was > 100 µM and the TGI (ACHN renal) was > 100 µM. For the same molecule, the TGI (CAKI-1 renal) was > 100 µM, the TGI (CCRF-CEM leukemia) was > 100 µM and the TGI (COLO 205 colon) was > 100 µM. For the same molecule, the TGI (DU-145 prostate) was > 100 µM, the TGI (EKVX NSCLC) was > 100 µM and the TGI (HCC-2998 colon) was > 100 µM. The TGI (HCT-15 colon) was > 100 µM, the TGI (HL-60(TB) leukemia) was > 100 µM and the TGI (HOP-62 NSCLC) was > 100 µM. The TGI (HOP-92 NSCLC) was > 100 µM, the TGI (HT29 colon) was > 100 µM and the TGI (IGROV1 ovarian) was > 100 µM. The TGI (K-562 leukemia) was > 100 µM, the TGI (KM12 colon) was > 100 µM and the TGI (LOX IMVI melanoma) was > 100 µM. For the same molecule, the TGI (M14 melanoma) was > 100 µM, the TGI (MALME-3M melanoma) was > 100 µM and the TGI (MCF7 breast) was > 100 µM. The TGI (MDA-MB-231 breast) was > 100 µM, the TGI (MDA-MB-435) was > 100 µM and the TGI (MDA-N) was > 100 µM. The TGI (MOLT-4 leukemia) was > 100 µM, the TGI (NCI-H226 lung) was > 100 µM and the TGI (NCI-H23 lung) was > 100 µM. The TGI (NCI-H460 lung) was > 100 µM, the TGI (NCI/ADR-RES ovarian) was > 100 µM and the TGI (OVCAR-3 ovarian) was > 100 µM. The TGI (OVCAR-4 ovarian) was > 100 µM, the TGI (OVCAR-5 ovarian) was > 100 µM and the TGI (OVCAR-8 ovarian) was > 100 µM. The TGI (PC-3 prostate) was > 100 µM, the TGI (RPMI-8226 leukemia) was > 100 µM and the TGI (RXF 393 renal) was > 100 µM. For the same molecule, the TGI (SF-295 CNS) was > 100 µM, the TGI (SK-MEL-2 melanoma) was > 100 µM and the TGI (SK-MEL-28 melanoma) was > 100 µM. For the same molecule, the TGI (SK-MEL-5 melanoma) was > 100 µM, the TGI (SK-OV-3 ovarian) was > 100 µM and the TGI (SNB-19 CNS) was > 100 µM. The TGI (SNB-75 CNS) was > 100 µM, the TGI (SR leukemia) was > 100 µM and the TGI (SW-620 colon) was > 100 µM. The TGI (T-47D breast) was > 100 µM, the TGI (TK-10 renal) was > 100 µM and the TGI (U251 CNS) was > 100 µM. For the same molecule, the TGI (UACC-257 melanoma) was > 100 µM, the TGI (UACC-62 melanoma) was > 100 µM and the TGI (UO-31 renal) was > 100 µM.
Work on `COc1cc2c(cc1OCCCCCN1C(=O)c3cccc4cccc(c34)C1=O)N=C[C@@H]1CCCN1C2=O` yielded a TGI (A498 renal) of 1.3 µM, a TGI (A549 NSCLC) of 3.3 µM and a TGI (ACHN renal) of 0.827 µM. It also gave a TGI (BT-549 breast) of 0.855 µM, a TGI (CCRF-CEM leukemia) of 0.0677 µM and a TGI (DU-145 prostate) of 6.9 µM. For the same molecule, the TGI (EKVX NSCLC) was 1.85 µM, the TGI (HCC-2998 colon) was > 100 µM and the TGI (HCT-116 colon) was 3.13 µM. It also gave a TGI (HCT-15 colon) of 4.06 µM, a TGI (HOP-92 NSCLC) of 0.747 µM and a TGI (HT29 colon) of 1.5 µM. The TGI (IGROV1 ovarian) was 0.535 µM, the TGI (K-562 leukemia) was > 100 µM and the TGI (KM12 colon) was 0.391 µM. It also gave a TGI (LOX IMVI melanoma) of 0.785 µM, a TGI (M14 melanoma) of 0.349 µM and a TGI (MALME-3M melanoma) of 0.364 µM. For the same molecule, the TGI (MDA-MB-231 breast) was > 100 µM, the TGI (MDA-MB-435) was 0.306 µM and the TGI (MDA-N) was 0.331 µM. The TGI (MOLT-4 leukemia) was > 100 µM, the TGI (NCI-H226 lung) was 0.574 µM and the TGI (NCI-H23 lung) was 0.458 µM. For the same molecule, the TGI (NCI-H460 lung) was > 100 µM, the TGI (NCI-H522 lung) was 0.167 µM and the TGI (NCI/ADR-RES ovarian) was 0.89 µM. For the same molecule, the TGI (OVCAR-3 ovarian) was 0.524 µM, the TGI (OVCAR-4 ovarian) was > 100 µM and the TGI (OVCAR-5 ovarian) was 15.5 µM. For the same molecule, the TGI (OVCAR-8 ovarian) was 1.47 µM, the TGI (RPMI-8226 leukemia) was > 26.2 µM and the TGI (RXF 393 renal) was 0.0493 µM. The TGI (SF-268 CNS) was > 100 µM, the TGI (SF-295 CNS) was 4.66 µM and the TGI (SF-539 CNS) was 2.55 µM. The TGI (SK-MEL-2 melanoma) was 0.548 µM, the TGI (SK-MEL-28 melanoma) was 0.966 µM and the TGI (SN12C renal) was 9.62 µM. The TGI (SNB-19 CNS) was 4.15 µM, the TGI (SNB-75 CNS) was 1.24 µM and the TGI (T-47D breast) was 8.25 µM. The TGI (TK-10 renal) was 2.78 µM, the TGI (U251 CNS) was > 100 µM and the TGI (UACC-257 melanoma) was 1.84 µM. It also gave a TGI (UACC-62 melanoma) of 0.297 µM and a TGI (UO-31 renal) of 0.454 µM.
